Laboratory results: US10092529B2, “Necrosis inhibitors” (National Institute of Biological Sciences, Beijing, priority 2014, dated 2018)

System: HT-29 cells
Test: Necrosis assay: TNF-α/Smac mimetic/z-VAD induced necrosis, cell viability by CellTiter-Glo
Type: cell-based
Conditions: Homo sapiens, inhibition of necrosis, ATP levels, range given in uM, read-out: EC50 (necrosis activity)
Procedure: HT-29 cells were cultured in McCoy's 5A culture medium (Invitrogen). On day one, HT-29 cells were plated in 96-well assay plates at density of 2,500-3,500 cells per well. On day two, necrosis were induced by adding 20 ng/ml TNF-α (T), 100 nM Smac mimetic (S), and […] z-VAD (Z). At the same time, […] compound from a chemical library of ˜200,000 compounds was delivered into each well. After 24 hrs treatment, cell viability was determined by measuring ATP level using the CellTiter-Glo Luminescent Cell Viability Assay kit. A CellTiter-Glo Assay (Promega) was performed according to the manufacturer's instructions Luminescence was recorded with a PerkinElmer EnSpire Multimode Plate Reader. Survived cells were normalized to those cells treated with DMSO. Nec-1 was used as a positive control for screening necrosis inhibitors. Data are represented as mean±standard deviation of duplicates.
Dose-dependent inhibition of necrosis by compound #9 and the derivative compounds in HT-29 cells were determined by measuring ATP levels as described above.

SMILES | EC50
CCC(C)(C)C(=O)N1C(=O)CCN1c1ccccc1 [Compound 33, 2-(2,2-dimethylbutanoyl)-1-phenylpyrazolidin-3-one] | 1 to 100 µM
CCC(C)(C)C(=O)N1CC1c1ccccc1 (centres unmarked) [Compound 1, 2,2-dimethyl-1-(2-phenylaziridin-1-yl)butan-1-one] | 1 to 100 µM
CCC(C)(C)C(=O)N1C[C@@H](O)[C@H]1c1ccccc1 [Compound S4, 1-((2R,3R)-3-hydroxy-2-phenylazetidin-1-yl)-2,2-dimethylbutan-1-one] | 1 to 10 µM
O=C(C=CCl)N1C(=O)C[C@H]1c1ccccc1 [Compound 40, (S)-1-(3-chloroacryloyl)-4-phenylazetidin-2-one] | 1 to 100 µM
C#CCN1C(=O)C[C@H]1c1ccccc1 [Compound 49, (S)-4-phenyl-1-(prop-2-ynyl)azetidin-2-one] | 1 to 100 µM
CC(C)(C)S(=O)(=O)N1C(=O)C[C@H]1c1ccccc1 [Compound 45, (S)-1-(tert-butylsulfonyl)-4-phenylazetidin-2-one] | 1 to 100 µM
CCC(C)(C)C(=O)N1C[C@H](O)[C@H]1c1ccccc1 [Compound S5, 1-((2R,3S)-3-hydroxy-2-phenylazetidin-1-yl)-2,2-dimethylbutan-1-one] | 1 to 100 µM
CC(C)S(=O)(=O)N1C(=O)C[C@H]1c1ccccc1 [Compound 42, (S)-1-(isopropylsulfonyl)-4-phenylazetidin-2-one] | 1 to 100 µM
CC(C)(C)S(=O)(=O)N1CC[C@H]1c1ccccc1 [Compound S8, (S)-1-(tert-butylsulfonyl)-2-phenylazetidine] | 1 to 100 µM
CC(C)(C)[S+]([O-])N1C(=O)C[C@H]1c1ccccc1 (stereo partly drawn) [Compound 41, (4S)-1-(tert-butylsulfinyl)-4-phenylazetidin-2-one] | 1 to 100 µM
CCC(C)(C)C(=O)n1cccc1-c1ccccc1 [Compound 78, 2,2-dimethyl-1-(2-phenyl-1H-pyrrol-1-yl)butan-1-one] | 1 to 100 µM
CCC(C)(C)C(=O)N1COC[C@@H]1c1ccccc1 [Compound 7, (S)-2,2-dimethyl-1-(4-phenyloxazolidin-3-yl)butan-1-one] | 1 to 100 µM
CCC(C)(C)C(=O)N1NC(=O)CC1c1ccccc1 (centres unmarked) [Compound 34, 1-(2,2-dimethylbutanoyl)-5-phenylpyrazolidin-3-one] | 1 to 100 µM
CCC(C)(C)C(=O)N1C(=O)CC1c1cccc([N+](=O)[O-])c1 (centres unmarked) [Compound 28, 1-(2,2-dimethylbutanoyl)-4-(3-nitrophenyl)azetidin-2-one] | 1 to 10 µM
CC(=O)N1C(=O)OC[C@H]1c1ccccc1 [Compound 39, (R)-3-acetyl-4-phenyloxazolidin-2-one] | 1 to 10 µM
CCS(=O)(=O)N1C(=O)C[C@H]1c1ccccc1 [Compound 43, (S)-1-(ethylsulfonyl)-4-phenylazetidin-2-one] | 1 to 100 µM
CCC(C)(C)C(=O)N1CCN(C(=O)OC(C)(C)C)CC1c1ccccc1 (centres unmarked) [Compound 19, tert-butyl 4-(2,2-dimethylbutanoyl)-3-phenylpiperazine-1-carboxylate] | 1 to 100 µM
CCC(C)(C)C(=O)N1CCCCC1c1ccccc1 (centres unmarked) [Compound 11, 2,2-dimethyl-1-(2-phenylpiperidin-1-yl)butan-1-one] | 1 to 100 µM
CCC(C)(C)C(=O)N1CCN(C(C)=O)CC1c1ccccc1 (centres unmarked) [Compound 18, 1-(4-acetyl-2-phenylpiperazin-1-yl)-2,2-dimethylbutan-1-one] | 1 to 100 µM
CC(C)(C)[S+]([O-])N1CC[C@H]1c1ccccc1 (stereo partly drawn) [Compound S7, (2S)-1-(tert-butylsulfinyl)-2-phenylazetidine] | 1 to 10 µM
CCN1C(=O)C[C@H]1c1ccccc1 [Compound 48, (S)-1-ethyl-4-phenylazetidin-2-one] | 1 to 100 µM
CCC(C)(C)C(=O)N1CCOC1c1ccccc1 (centres unmarked) [Compound 6, 2,2-dimethyl-1-(2-phenyloxazolidin-3-yl)butan-1-one] | 1 to 100 µM
CCN1C(=O)OC[C@H]1c1ccccc1 [Compound 51, (R)-3-ethyl-4-phenyloxazolidin-2-one] | 1 to 100 µM

Same assay, conditions: inhibition of necrosis, ATP levels, range given in nM, read-out: EC50 (necrosis activity)

SMILES | EC50
CCC(C)(C)C(=O)N1CCCC1C1CCCCC1 (centres unmarked) [Compound 5, 1-(2-cyclohexylpyrrolidin-1-yl)-2,2-dimethylbutan-1-one] | 0.001 to 1 µM
CCC(C)(C)C(=O)N1C(=O)CC1c1cccc(Br)c1 (centres unmarked) [Compound 26, 4-(3-bromophenyl)-1-(2,2-dimethylbutanoyl)azetidin-2-one] | 0.001 to 1 µM
CCC(C)(C)C(=O)N1NCCC1c1ccccc1 (centres unmarked) [Compound 21, 2,2-dimethyl-1-(5-phenylpyrazolidin-1-yl)butan-1-one] | 0.001 to 1 µM
CCC(C)(C)C(=O)N1N=CCC1c1ccccc1 (centres unmarked) [Compound 20, 2,2-dimethyl-1-(5-phenyl-4,5-dihydro-1H-pyrazol-1-yl)butan-1-one] | 0.001 to 1 µM
C#CC(C)(C)C(=O)N1CC[C@H]1c1ccccc1 [Compound 46, (S)-2,2-dimethyl-1-(2-phenylazetidin-1-yl)but-3-yn-1-one] | 0.001 to 1 µM
CCC(C)(C)C(=O)N1C(c2ccccc2)CCN1C (centres unmarked) [Compound 22, 2,2-dimethyl-1-(2-methyl-5-phenylpyrazolidin-1-yl)butan-1-one] | 0.001 to 1 µM
CCC(C)(C)C(=O)N1COC[C@H]1c1ccccc1 [Compound 8, (R)-2,2-dimethyl-1-(4-phenyloxazolidin-3-yl)butan-1-one] | 0.001 to 1 µM
CCC(C)(C)C(=O)N1C(=O)C(F)(F)C1c1ccccc1 (centres unmarked) [Compound 32, 1-(2,2-dimethylbutanoyl)-3,3-difluoro-4-phenylazetidin-2-one] | 0.001 to 1 µM
CC(C)(C)C(=O)N1CC[C@H]1c1ccccc1 [Compound S12, (S)-2,2-dimethyl-1-(2-phenylazetidin-1-yl)propan-1-one] | 0.001 to 1 µM

Same assay, conditions: inhibition of necrosis, ATP levels, range given in uM, read-out: EC50 (necrosis activity)

SMILES | EC50
C=CC(C)(C)C(=O)N1CCCC1c1ccccc1 (centres unmarked) [Compound 69] | 1 to 1000 µM
CCC(C)(C)C(=O)N1CCC1c1ncc(C)s1 (centres unmarked) [Compound 65] | 1 to 1000 µM
CCC(C)(C)C(=O)N1CCC1c1ccccc1F (centres unmarked) [Compound 67] | 1 to 1000 µM
CCC(C)(C)C(=O)N1CC=C[C@H]1c1ccccc1 [Compound 72] | 1 to 1000 µM
C=CC(C)(C)C(=O)N1CCC1c1cccs1 (centres unmarked) [Compound 62] | 1 to 1000 µM
CCC(C)(C)C(=O)N1C=CC=CC1c1ccccc1 (centres unmarked) [Compound 55] | 1 to 1000 µM
C=CC(C)(C)C(=O)N1CCC1c1ccco1 (centres unmarked) [Compound 64] | 1 to 1000 µM
C=CC(C)(C)C(=O)N1CCC=C[C@H]1C1CCCCC1 [Compound 54] | 1 to 1000 µM
C=CC(C)(C)C(=O)N1CC=C[C@H]1c1ccccc1 [Compound 73] | 1 to 1000 µM
CCC(C)(C)C(=O)N1CCC=C[C@H]1c1ccccc1 [Compound 74] | 1 to 1000 µM
C=CC(C)(C)C(=O)N1CCC1c1ccc(C)s1 (centres unmarked) [Compound 63] | 1 to 1000 µM
C=CC(C)(C)C(=O)N1CCC1c1ncc(C)s1 (centres unmarked) [Compound 66] | 1 to 1000 µM
CCC(C)(C)C(=O)N1CCC1c1ccc(C)s1 (centres unmarked) [Compound 60] | 1 to 1000 µM
CCC(C)(C)S(=O)(=O)N1CC[C@H]1c1ccccc1 [Compound 70] | 1 to 1000 µM
CCC(C)(C)C(=O)N1CCC1c1cccc(F)c1 (centres unmarked) [Compound 71] | 1 to 1000 µM
C=CC(C)(C)C(=O)N1CCC=C[C@H]1c1ccccc1 [Compound 75] | 1 to 1000 µM
CCC(C)(C)C(=O)N1OCCC1c1ccccc1 (centres unmarked) [Compound 76] | 1 to 1000 µM
CCC(C)(C)C(=O)N1C=CC=CC1C1CCCCC1 (centres unmarked) [Compound 56] | 1 to 1000 µM
